From PubChem BioAssay AID248 (DTP/NCI, 2004)
Several values for one entry are separate records, joined by “and”; a condition that tells them apart may be missing. Equal values may be shown once. Toxic doses and inconclusive results are not listed. Rule as the data show it: active = T/C of 150% or more; inactive = T/C below 125%.

Tested on: L1210 leukemia ip in BDF1 mice, survival T/C
Assay: NCI In Vivo Anticancer Drug Screen. Data for tumor model L1210 Leukemia (intraperitoneal) in B6D2F1 (BDF1) mice
Conditions: endpoint: mean survival time, higher = longer survival
Summary of the method: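 Transplantable tumor model; survival measured in treated vs vehicle control mice. Value = treated/control.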

Measured: T/C

CC(C)N=C(N)c1ccc(NC(=O)c2ccc(C(=O)Nc3ccc(C(N)=NC(C)C)cc3)cc2)cc1
active: dose: 1.0 mg/kg/injection, schedule: Q01DX Z (ip), vehicle: water 162 % of control | dose: 1.25 mg/kg/injection, schedule: Q01DX Z (ip), vehicle: other 237 % of control | dose: 2.5 mg/kg/injection, schedule: Q01DX Z (ip), vehicle: other 172 % of control
inactive: dose: 0.12 mg/kg/injection, schedule: Q01DX Z (ip), vehicle: water 101 % of control | dose: 0.25 mg/kg/injection, schedule: Q01DX Z (ip), vehicle: water 108 % of control | dose: 0.5 mg/kg/injection, schedule: Q01DX Z (ip), vehicle: water 113 % of control | dose: 5.0 mg/kg/injection, schedule: Q01DX Z (ip), vehicle: other 118 % of control | dose: 62.0 mg/kg/injection, schedule: Q01DX Z (oral), vehicle: alkali diluted with CMC 104 % of control | dose: 125.0 mg/kg/injection, schedule: Q01DX Z (oral), vehicle: alkali diluted with CMC 93 % of control | dose: 250.0 mg/kg/injection, schedule: Q01DX Z (oral), vehicle: alkali diluted with CMC 96 % of control | dose: 500.0 mg/kg/injection, schedule: Q01DX Z (oral), vehicle: alkali diluted with CMC 90 % of control

OC1(c2ccncc2)CCc2ccccc21 (stereo unspecified)
inactive: dose: 50.0 mg/kg/injection, schedule: Q01DX009 (ip), vehicle: Klucel (hydroxypropylcellulose) (HPC) 101 % of control | dose: 100.0 mg/kg/injection, schedule: Q01DX009 (ip), vehicle: Klucel (hydroxypropylcellulose) (HPC) 98 % of control | dose: 100.0 mg/kg/injection, schedule: Q04DX003 (ip), vehicle: Klucel (hydroxypropylcellulose) (HPC) 97 % of control | dose: 200.0 mg/kg/injection, schedule: Q01DX009 (ip), vehicle: Klucel (hydroxypropylcellulose) (HPC) 102 % of control | dose: 200.0 mg/kg/injection, schedule: Q04DX003 (ip), vehicle: Klucel (hydroxypropylcellulose) (HPC) 101 % of control

CC1(C)OCC(C2OC(=S)OC2C2COC(C)(C)O2)O1 (stereo unspecified)
inactive: dose: 50.0 mg/kg/injection, schedule: Q04DX002 (ip), vehicle: Klucel (hydroxypropylcellulose) (HPC) 93 % of control | dose: 100.0 mg/kg/injection, schedule: Q04DX002 (ip), vehicle: Klucel (hydroxypropylcellulose) (HPC) 98 % of control | dose: 200.0 mg/kg/injection, schedule: Q04DX002 (ip), vehicle: Klucel (hydroxypropylcellulose) (HPC) 104 % of control

CN(C)CCN(C)C(=O)C(O)(c1ccccc1)c1ccccc1
inactive: dose: 100.0 mg/kg/injection, schedule: Q04DX002 (ip), vehicle: saline with Tween-80 97 % of control | dose: 200.0 mg/kg/injection, schedule: Q04DX002 (ip), vehicle: saline with Tween-80 97 % of control | dose: 400.0 mg/kg/injection, schedule: Q04DX002 (ip), vehicle: saline with Tween-80 97 % of control

C=C(C)C(=O)O[C@H]1CC2=C[C@@H](C[C@@]3(C)O[C@@H]3[C@H]3OC(=O)C(=C)[C@@H]31)OC2=O
inactive: dose: 2.5 mg/kg/injection, schedule: Q01DX009 (ip), vehicle: saline + alcohol 112 % of control | dose: 5.0 mg/kg/injection, schedule: Q01DX009 (ip), vehicle: saline + alcohol 110 % of control | dose: 5.0 mg/kg/injection, schedule: Q01DX Z (ip), vehicle: saline 106 % of control | dose: 10.0 mg/kg/injection, schedule: Q01DX009 (ip), vehicle: carboxymethylcellulose (CMC) 105 % of control | dose: 10.0 mg/kg/injection, schedule: Q01DX009 (ip), vehicle: saline + alcohol 107 % of control | dose: 10.0 mg/kg/injection, schedule: Q01DX Z (ip), vehicle: carboxymethylcellulose (CMC) 97 % of control | dose: 10.0 mg/kg/injection, schedule: Q01DX Z (ip), vehicle: saline 101 % of control | dose: 20.0 mg/kg/injection, schedule: Q01DX009 (ip), vehicle: carboxymethylcellulose (CMC) 93 % of control | dose: 20.0 mg/kg/injection, schedule: Q01DX009 (ip), vehicle: saline + alcohol 105 % of control | dose: 20.0 mg/kg/injection, schedule: Q01DX Z (ip), vehicle: carboxymethylcellulose (CMC) 100 % of control | dose: 40.0 mg/kg/injection, schedule: Q01DX009 (ip), vehicle: carboxymethylcellulose (CMC) 100 % of control | dose: 40.0 mg/kg/injection, schedule: Q01DX009 (ip), vehicle: saline + alcohol 90 % of control | dose: 40.0 mg/kg/injection, schedule: Q01DX Z (ip), vehicle: carboxymethylcellulose (CMC) 103 % of control

COc1ccccc1N1C(N)=NC(N)=NC1(C)C
inactive: dose: 25.0 mg/kg/injection, schedule: Q01DX009 (ip), vehicle: saline 104 % of control | dose: 25.0 mg/kg/injection, schedule: Q04DX003 (ip), vehicle: saline 113 % of control | dose: 50.0 mg/kg/injection, schedule: Q01DX009 (ip), vehicle: saline 98 % of control and 100 % of control | dose: 50.0 mg/kg/injection, schedule: Q04DX003 (ip), vehicle: saline 97 % of control | dose: 100.0 mg/kg/injection, schedule: Q04DX003 (ip), vehicle: saline 92 % of control

CN1C(=O)NC(=O)C1c1ccccc1 (stereo unspecified)
inactive: dose: 100.0 mg/kg/injection, schedule: Q04DX002 (ip), vehicle: saline 117 % of control | dose: 200.0 mg/kg/injection, schedule: Q04DX002 (ip), vehicle: saline 106 % of control | dose: 400.0 mg/kg/injection, schedule: Q04DX002 (ip), vehicle: saline 106 % of control

CCOC(Nc1ccc([N+](=O)[O-])cc1)C(=O)c1ccccc1 (stereo unspecified)
inactive: dose: 100.0 mg/kg/injection, schedule: Q01DX001 (ip), vehicle: saline 93 % of control | dose: 200.0 mg/kg/injection, schedule: Q01DX001 (ip), vehicle: saline 97 % of control | dose: 400.0 mg/kg/injection, schedule: Q01DX001 (ip), vehicle: saline 100 % of control
